Data: ChEMBL document CHEMBL2203221, “Atom-based enumeration: new eribulin analogues with low susceptibility to P-glycoprotein-mediated drug efflux” (Bioorg Med Chem Lett, 2012)

Experiments:
MES-SA = test: Resistance ratio of IC50 for human MES-SA/Dx5-Rx1 cells to IC50 for human MES-SA cells; assay type: functional
[1] = Cytotoxicity against human MES-SA/Dx5-Rx1 cells; assay type: functional, cell-based
[2] = Cytotoxicity against human MES-SA cells; assay type: functional, cell-based

SMILES | Ratio IC50 (MES-SA) | IC50 [1] | IC50 [2]
C=C1C[C@@H]2CC[C@@]34C[C@H]5O[C@@H]6[C@@H](O3)[C@H]3O[C@H](CC[C@@H]3O[C@H]6[C@H]5O4)CC(=O)C[C@@H]3[C@@H](OC)[C@@H](CC(O)CCCCCC)O[C@H]3C[C@H]3O[C@@H](CC[C@@H]1O2)C[C@@H](C)C3=C (stereo not given in full) | 4.6 | 2.1 nM | 0.46 nM
C=C1C[C@@H]2CC[C@@]34C[C@H]5O[C@@H]6[C@@H](O3)[C@H]3O[C@H](CC[C@@H]3O[C@H]6[C@H]5O4)CC(=O)C[C@@H]3[C@@H](OC)[C@@H](CC(O)CCCCCCCC)O[C@H]3C[C@H]3O[C@@H](CC[C@@H]1O2)C[C@@H](C)C3=C (stereo not given in full) | 7.2 | 5.6 nM | 0.77 nM
C=C1C[C@@H]2CC[C@@]34C[C@H]5O[C@@H]6[C@@H](O3)[C@H]3O[C@H](CC[C@@H]3O[C@H]6[C@H]5O4)CC(=O)C[C@@H]3[C@@H](OC)[C@@H](C[C@H](O)COC)O[C@H]3C[C@H]3O[C@@H](CC[C@@H]1O2)C[C@@H](C)C3=C | 17 | 2.8 nM | 0.17 nM
CC(=O)O[C@H]1C(=O)[C@@]2(C)[C@H]([C@H](OC(=O)c3ccccc3)[C@]3(O)C[C@H](OC(=O)[C@H](O)[C@@H](NC(=O)c4ccccc4)c4ccccc4)C(C)=C1C3(C)C)[C@]1(OC(C)=O)CO[C@@H]1C[C@@H]2O [PACLITAXEL] | – | > 1000 nM | –
C=C1C[C@@H]2CC[C@@]34C[C@H]5O[C@H]6[C@@H](O3)[C@H]3O[C@H](CC[C@@H]3O[C@H]6[C@H]5O4)CC(=O)C[C@@H]3[C@@H](OC)[C@@H](C[C@H](O)CN)O[C@H]3C[C@H]3O[C@@H](CC[C@@H]1O2)C[C@@H](C)C3=C.CS(=O)(=O)O [ERIBULIN MESYLATE] | 1800 | 3100 nM | 1.7 nM
C=C1C[C@@H]2CC[C@@]34C[C@H]5O[C@@H]6[C@@H](O3)[C@H]3O[C@H](CC[C@@H]3O[C@H]6[C@H]5O4)CC(=O)C[C@@H]3[C@@H](OC)[C@@H](C[C@H](O)CO)O[C@H]3C[C@H]3O[C@@H](CC[C@@H]1O2)C[C@@H](C)C3=C | 220 | 6.5 nM | 0.03 nM
C=C1C[C@@H]2CC[C@@]34C[C@H]5O[C@@H]6[C@@H](O3)[C@H]3O[C@H](CC[C@@H]3O[C@H]6[C@H]5O4)CC(=O)C[C@@H]3[C@@H](OC)[C@@H](CC(O)CCCC)O[C@H]3C[C@H]3O[C@@H](CC[C@@H]1O2)C[C@@H](C)C3=C (stereo not given in full) | 4.2 | 0.91 nM | 0.22 nM
C=C1C[C@@H]2CC[C@@]34C[C@H]5O[C@@H]6[C@@H](O3)[C@H]3O[C@H](CC[C@@H]3O[C@H]6[C@H]5O4)CC(=O)C[C@@H]3[C@@H](OC)[C@@H](CC(C)O)O[C@H]3C[C@H]3O[C@@H](CC[C@@H]1O2)C[C@@H](C)C3=C (stereo not given in full) | 17 | 4.8 nM | 0.29 nM
C=C1C[C@@H]2CC[C@@]34C[C@H]5O[C@@H]6[C@@H](O3)[C@H]3O[C@H](CC[C@@H]3O[C@H]6[C@H]5O4)CC(=O)C[C@@H]3[C@@H](OC)[C@@H](CCO)O[C@H]3C[C@H]3O[C@@H](CC[C@@H]1O2)C[C@@H](C)C3=C | 33 | 100 nM | 3 nM
